Source: patent publication US20230312587A1, “PTERIDINONE COMPOUNDS AND USES THEREOF” (Vertex Pharmaceutical Incorporated, priority 2018, published 2023)
Like-named read-outs stand apart in the source and are kept apart here.

Tests used:
Colo-205 cells = assay: Calcium flux assay (FLIPR Calcium 5); assay type: cell-based; settings: FLIPR Calcium 5, measured over 36 minutes
Experimental: Compounds described herein induced ER stress by causing intracellular calcium flux. Calcium flux was measured in Colo-205 cells using the FLTPR® Calcium 5 Assay Kit according to manufacter's protocol (Molecular Devices, Cat. #R8186) on a FLIPR3 system (Molecular Devices). Calcium flux is measured over 36 minutes. The Colo-205 calcium flux assay data are summarized in Table 47: A<0.6 μM; 0.6 μM≤B<2.0 μM; 2.0 μM≤C<10.0 μM; D≥10.0 μM.

HepG2 WFS1 KO = assay: In vitro cell viability (CellTiter-Glo), HepG2 WFS1 KO; assay type: cell-based; settings: for IC50: 96 hours; for shift in IC50 on depletion of WFS1 from HepG2 cells: WFS1 KO vs parental HepG2, 96 hours
Excerpt: A double cleavage strategy was employed to remove large fragments from the WFS1 locus. Suitable target sites in WFS1 exon 8 were first selected using CRISPR design software to rank suitable target sites and computationally predict off-target sites for each intended target. Six top guide RNA sequences are identified and screened for activity using the Surveyor Mutation Detection Kit (Integrated DNA Technologies). Then, the best 2 guide RNAs were cloned into GeneArt OFP CRISPR nuclease vectors (Thermofisher, Cat #A21174) separately and co-transfected into HepG2 cells using nucleofection (4D Nucleofector X, Lonza). Cells were sorted by FACS 48 hrs later to enrich for the OFP positive cell population. The OFP positive cell population were plated into 96-well plates at 0.5-5 cells/well to isolate clonal cell lines. After allowing cells to expand for 2-3 weeks, plates were inspected for presence of colonies. When colonies became more than 70% confluent, they were dissociated with trypsin and were further expanded. Cell clones with homozygous double cleavage of WFS1 exon 8 were detected with PCR and confirmed with DNA sequencing.
HEK293 cells containing empty pCLPCx vector (HEK293 empty), HEK293 cells stably over-expression WFS1 (HEK293 WFS1), HepG2, and HepG2 cells where WFS1 was depleted via CRISPR/Cas9 (HepG2 WFS1 KO) cells were plated into 96-well black plates (Corning, product #3904) in 100 microliters of complete DMEM cell culture media [DMEM (Life Technologies, product #11960-051) media supplemented with 10% FBS (Hyclone, catalog #SH30071.03), antimycotic/antibiotic (Life Technologies, product #15240-062), and Glutamax (Life Technologies, product #35050-061)] at 1,000 (HEK293) or 5,000 (HepG2) cells per well. Cells were allowed to attach and grow overnight, after which compounds are added at various concentrations. Cell viability was assessed 96 hrs after compound addition with CellTiter-Glo reagent (Promega, catalog #G7570) according to manufacturer's protocol and measurement on a Pherastar luminescence plate reader (BMG Labtech).
To determine the effect of WFS1 depletion on compound mediated inhibition of cell viability, parental HepG2 cells and HepG2 cells where WFS1 was deleted by CRISPR/Cas9 were exposed to increasing concentrations of either Compound 136 or Compound 253 for 96 hours after which time viability was determined using Cell Titer Glo reagent (Promega). […] The IC50s for the viability of both the HepG2 parental and WFS1 knockout cells are summarized in Table 47: A<0.5 μM; 0.5 μM≤<2.0 μM; 2.0 μM≤C<10.0 μM; D≥[…].

[1] = system: Colo205-TCF/LEF-Luciferase (Luc) tumor; assay: In vivo inhibition of TCF/LEF reporter activity in Colo-205 tumors; set-up: concentration or dose not given beside the values; settings: TCF/LEF luciferase reporter in Colo-205 tumors, nu/nu mice, oral gavage
How it was run: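 Female nu/nu mice carried subcutaneous Colo205-TCF/LEF-luciferase tumours (200–500 mm^3), n=4 per group. Compound was given by oral gavage in 1:3:5:1 EtOH:DMSO:PEG-400:H2O at 10 ml/kg, with vehicle as control. Luciferase activity in tumour lysates (Steady-Glo) was normalised to BCA protein.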

[2] = HepG2 WFS1 knockout, read-out: HepG2 WFS1 KO viability
[3] = Homo sapiens, HepG2 WFS1 knockout, read-out: HepG2 WFS1 KO viability

Structure (SMILES)	EC50 (Colo-205 cells; Homo sapiens, COLO 205, 0.6 h) [µM]	IC50 (HepG2 WFS1 KO; Homo sapiens, cell viability, HepG2 WFS1 KO, Cell Titer Glo, read-out: IC50) [µM]	IC50 (HepG2 WFS1 KO; Homo sapiens, cell viability, HepG2 WFS1 KO, read-out: IC50 class) [µM]	IC50 (HepG2 WFS1 KO; [3]) [µM]	EC50 (Colo-205 cells) [µM]	IC50 (HepG2 WFS1 KO; [2]) [µM]	IC50 (HepG2 WFS1 KO; cell viability, HepG2 WFS1 KO, Cell Titer Glo, read-out: IC50) [µM]	IC50 (HepG2 WFS1 KO; cell viability, HepG2 WFS1 KO, read-out: IC50 class) [µM]	shift in IC50 on depletion of WFS1 from HepG2 cells (HepG2 WFS1 KO; cell viability)	Percent Remaining Activity at 8 hrs after Dosing [1] [%]
Cc1nc(NCc2cnn(Cc3ccc(C(F)(F)F)nc3)c2)nc2c1NC(=O)[C@H](C)N2C [Compound 136, (7S)-4,7,8-trimethyl-2-(((1-((6-(trifluoromethyl)pyridin-3-yl)methyl)-111-pyrazol-4-yl)methyl)amino)-7,8-dihydropteridin-6(5H)-one]	–	–	–	–	0.6 to 2	≥ 10	> 27	≥ 10	greater than 100 fold	24
Cc1nc(NCc2cnn(Cc3ccc(Cl)nc3)c2)nc2c1NC(=O)[C@H](C(C)C)N2C [Compound 409, (7S)-2-(((1-((6-chloropyridin-3-yl)methyl)-1H-pyrazol-4-yl)methyl)amino)-7-isopropyl-4,8-dimethyl-7,8-dihydropteridin-6(5H)-one]	0.6 to 2	–	–	≥ 10	–	–	–	–	–	27
Cc1nc(NCc2cnn(Cc3ccc(F)nc3)c2)nc2c1NC(=O)[C@H](C1CC1)N2C [Compound 421, (7S)-7-cyclopropyl-2-(((1-((6-fluoropyridin-3-yl)methyl)-1H-pyrazol-4-yl)methyl)amino)-4,8-dimethyl-7,8-dihydropteridin-6(511)-one]	–	–	–	–	0.6 to 2	≥ 10	–	–	–	23
Cc1cc(F)ncc1Cn1cc(CNc2nc(C)c3c(n2)N(C)[C@@H](C(C)C)C(=O)N3)cn1 [Compound 423, (7S)-2-(((1-((6-fluoro-4-methylpyridin-3-yl)methyl)-1H-pyrazol-4-yl)methyl)amino)-7-isopropyl-4,8-dimethyl-7,8-dihydropteridin-6(5H)-one]	0.6 to 2	–	–	≥ 10	–	–	–	–	–	70
Cc1ncc(Cn2cc(CNc3nc(C)c4c(n3)N(C)[C@@H](C(C)C)C(=O)N4)cn2)cc1F [Compound 425, (7S)-2-(((1-((5-fluoro-6-methylpyridin-3-yl)methyl)-1H-pyrazol-4-yl)methyl)amino)-7-isopropyl-4,8-dimethyl-7,8-dihydropteridin-6(5H)-one]	0.6 to 2	–	–	≥ 10	–	–	–	–	–	29

More lines, main results first:

EC50 (Colo-205 cells; Homo sapiens, COLO 205, 0.6 h) [µM]	IC50 (HepG2 WFS1 KO; Homo sapiens, cell viability, HepG2 WFS1 KO, Cell Titer Glo, read-out: IC50) [µM]	IC50 (HepG2 WFS1 KO; Homo sapiens, cell viability, HepG2 WFS1 KO, read-out: IC50 class) [µM]	IC50 (HepG2 WFS1 KO; [3]) [µM]	Structure (SMILES)	EC50 (Colo-205 cells) [µM]	IC50 (HepG2 WFS1 KO; [2]) [µM]	IC50 (HepG2 WFS1 KO; cell viability, HepG2 WFS1 KO, Cell Titer Glo, read-out: IC50) [µM]	IC50 (HepG2 WFS1 KO; cell viability, HepG2 WFS1 KO, read-out: IC50 class) [µM]	shift in IC50 on depletion of WFS1 from HepG2 cells (HepG2 WFS1 KO; cell viability)	Percent Remaining Activity at 8 hrs after Dosing [1] [%]
< 0.6	4.4	2 to 10	–	Cc1nc(N[C@H]2C[C@H](Oc3cc(F)c(F)c(F)c3)C2)nc2c1N(C)C(=O)[C@H](C)N2C [Compound 253, (7S)-4,5,7,8-tetramethyl-2-((trans-3-(3,4,5-trifluorophenoxy)cyclobutyl)amino)-7,8-dihydropteridin-6(5H)-one]	–	–	–	–	greater than 5 fold	15
0.6 to 2	–	–	≥ 10	Cc1nc(NCc2cnn(Cc3ccc(C(F)(F)F)nc3C(C)(C)O)c2)nc2c1NC(=O)[C@H](C)N2C [Compound 416, (7S)-2-(((1-((2-(2-hydroxypropan-2-yl)-6-(trifluoromethyl)pyridin-3-yl)methyl)-1H-pyrazol-4-yl)methyl)amino)-4,7,8-trimethyl-7,8-dihydropteridin-6(5H)-one]	–	–	–	–	–	22
